pEC50: −log10 of the molar value. Activity calls are given as the source filed them. The calls are words filed in the database; no cut-off is given here.
Key:
P2Y purinoceptor 6 [1] = target: T1, P2Y purinoceptor 6 (Homo sapiens, UniProt Q15077); assay: Antagonist activity at human P2Y6 receptor assessed as inhibition of UDP-induced IP accumulation at 100 uM
Target sequence in this assay (Q15077 whole entry, looked up): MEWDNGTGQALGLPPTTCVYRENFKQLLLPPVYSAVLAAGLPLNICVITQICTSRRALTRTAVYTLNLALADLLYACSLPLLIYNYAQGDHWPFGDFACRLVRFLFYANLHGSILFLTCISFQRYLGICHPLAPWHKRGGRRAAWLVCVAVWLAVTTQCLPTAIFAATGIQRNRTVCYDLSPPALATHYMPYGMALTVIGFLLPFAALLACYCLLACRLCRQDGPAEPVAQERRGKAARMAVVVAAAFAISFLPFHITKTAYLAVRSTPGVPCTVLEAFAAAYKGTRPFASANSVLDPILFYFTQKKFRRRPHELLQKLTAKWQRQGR

P2Y purinoceptor 4 [2] = target: T2, P2Y purinoceptor 4 (Homo sapiens, UniProt P51582); assay: Agonist activity at human P2Y4 receptor expressed in 1321N1 cells assessed as IP accumulation by SPA at 100 uM; type: functional, cell-based
Target sequence in this assay (P51582 whole entry): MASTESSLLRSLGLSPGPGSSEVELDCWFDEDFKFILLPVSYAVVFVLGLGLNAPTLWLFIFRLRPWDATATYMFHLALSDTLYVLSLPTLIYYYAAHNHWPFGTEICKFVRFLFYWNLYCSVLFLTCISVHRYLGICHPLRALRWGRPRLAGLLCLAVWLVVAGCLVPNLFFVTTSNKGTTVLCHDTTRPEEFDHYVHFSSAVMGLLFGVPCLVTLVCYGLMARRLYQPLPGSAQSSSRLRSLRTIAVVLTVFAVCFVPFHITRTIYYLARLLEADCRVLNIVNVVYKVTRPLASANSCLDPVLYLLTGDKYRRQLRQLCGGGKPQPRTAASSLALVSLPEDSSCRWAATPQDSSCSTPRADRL

P2Y purinoceptor 6 [3] = target: T1, P2Y purinoceptor 6; assay: Agonist activity at human P2Y6 receptor expressed in 1321N1 cells assessed as IP accumulation by SPA at 100 uM; type: functional, cell-based
Target sequence in this assay (Q15077 whole entry): as the sequence (Q15077 whole entry, looked up) above

P2Y purinoceptor 4 [4] = target: T2, P2Y purinoceptor 4; assay: Agonist activity at human P2Y4 receptor expressed in 1321N1 cells assessed as IP accumulation by SPA; type: functional, cell-based
Target sequence in this assay (P51582 whole entry): as the sequence (P51582 whole entry) above

P2Y purinoceptor 2 [5] = target: T3, P2Y purinoceptor 2 (Homo sapiens, UniProt P41231); assay: Antagonist activity at human P2Y2 receptor assessed as inhibition of UTP-induced IP accumulation at 100 uM; type: functional
T3 sequence (P41231 whole entry): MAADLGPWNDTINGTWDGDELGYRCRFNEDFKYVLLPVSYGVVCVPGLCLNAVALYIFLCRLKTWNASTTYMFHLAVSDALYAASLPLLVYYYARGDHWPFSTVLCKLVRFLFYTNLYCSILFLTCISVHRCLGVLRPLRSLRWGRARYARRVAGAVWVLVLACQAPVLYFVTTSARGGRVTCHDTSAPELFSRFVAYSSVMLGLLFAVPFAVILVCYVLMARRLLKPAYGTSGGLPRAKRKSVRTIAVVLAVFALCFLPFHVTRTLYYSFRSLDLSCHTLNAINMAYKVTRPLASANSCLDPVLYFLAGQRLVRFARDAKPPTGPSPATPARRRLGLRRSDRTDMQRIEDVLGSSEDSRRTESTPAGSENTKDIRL

P2Y purinoceptor 4 [6] = target: T2, P2Y purinoceptor 4; assay: Antagonist activity at human P2Y4 receptor assessed as inhibition of UTP-induced IP accumulation at 100 uM
Target sequence in this assay (P51582 whole entry, looked up): as the sequence (P51582 whole entry) above

P2Y purinoceptor 6 [7] = target: T1, P2Y purinoceptor 6; assay: Agonist activity at human P2Y6 receptor expressed in 1321N1 cells assessed as IP accumulation by SPA at 1 uM; type: functional, cell-based
Target sequence in this assay (Q15077 whole entry): as the sequence (Q15077 whole entry, looked up) above

P2Y purinoceptor 6 [8] = target: T1, P2Y purinoceptor 6; assay: Agonist activity at human P2Y6 receptor expressed in 1321N1 cells assessed as IP accumulation by SPA; type: functional, cell-based
Target sequence in this assay (Q15077 whole entry): as the sequence (Q15077 whole entry, looked up) above

P2Y purinoceptor 2 [9] = target: T3, P2Y purinoceptor 2; assay: Agonist activity at human P2Y2 receptor expressed in 1321N1 cells assessed as IP accumulation by SPA; type: functional, cell-based
P2Y purinoceptor 2 [10] = target: T3, P2Y purinoceptor 2; assay: Agonist activity at human P2Y2 receptor expressed in 1321N1 cells assessed as IP accumulation by SPA at 1 uM; type: functional, cell-based
P2Y purinoceptor 2 [11] = target: T3, P2Y purinoceptor 2; assay: Agonist activity at human P2Y2 receptor expressed in 1321N1 cells assessed as IP accumulation by SPA at 100 uM; type: functional, cell-based
P2Y purinoceptor 4 [12] = target: T2, P2Y purinoceptor 4; assay: Agonist activity at human P2Y4 receptor expressed in 1321N1 cells assessed as IP accumulation by SPA at 1 uM; type: functional, cell-based
Target sequence in this assay (P51582 whole entry): as the sequence (P51582 whole entry) above

Homo sapiens [13] = species: Homo sapiens; assay: Selectivity for human P2Y6 over P2Y2
P2Y purinoceptor 6 [14] = target: P2Y purinoceptor 6 (Rattus norvegicus, UniProt Q63371); assay: Agonist activity at rat P2Y6 receptor assessed as IP accumulation by SPA; type: functional
Sequence of P2Y purinoceptor 6 (Rattus norvegicus, UniProt Q63371) (Q63371 whole entry): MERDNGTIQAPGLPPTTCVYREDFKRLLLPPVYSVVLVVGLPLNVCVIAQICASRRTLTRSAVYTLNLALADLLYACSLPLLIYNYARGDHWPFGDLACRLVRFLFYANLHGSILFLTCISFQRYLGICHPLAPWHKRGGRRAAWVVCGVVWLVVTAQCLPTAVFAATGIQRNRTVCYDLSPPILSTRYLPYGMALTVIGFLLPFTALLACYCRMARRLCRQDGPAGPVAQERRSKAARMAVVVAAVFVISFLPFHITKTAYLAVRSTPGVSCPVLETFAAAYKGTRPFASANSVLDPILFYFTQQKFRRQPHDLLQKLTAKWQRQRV

Homo sapiens [15] = species: Homo sapiens; assay: Selectivity for human P2Y6 over P2Y4

| Compound | Activity (P2Y purinoceptor 6 [1]) | Activity (P2Y purinoceptor 4 [2]) | Activity (P2Y purinoceptor 6 [3]) | pEC50 (P2Y purinoceptor 4 [4]) | Activity (P2Y purinoceptor 2 [5]) | Activity (P2Y purinoceptor 4 [6]) | Activity (P2Y purinoceptor 6 [7]) | pEC50 (P2Y purinoceptor 6 [8]) | pEC50 (P2Y purinoceptor 2 [9]) | Activity (P2Y purinoceptor 2 [10]) | Activity (P2Y purinoceptor 2 [11]) | Activity (P2Y purinoceptor 4 [12]) | Ratio (Homo sapiens [13]) | pEC50 (P2Y purinoceptor 6 [14]) | Ratio (Homo sapiens [15]) |
| --- | --- | --- | --- | --- | --- | --- | --- | --- | --- | --- | --- | --- | --- | --- | --- |
| CCCc1cc(=O)n([C@@H]2O[C@H](COP(=O)(O)OP(=O)(O)OP(=O)(O)O)[C@@H](O)[C@H]2O)c(=O)[nH]1 | inactive | 4% | 23% | < 4.00 | inactive | inactive | 0% | < 4.00 | < 6.00 | 16% | 83% |  |  |  |  |
| O=C(Cn1c(=O)ccn([C@@H]2O[C@H](COP(=O)(O)OP(=O)(O)OP(=O)(O)O)[C@@H](O)[C@H]2O)c1=O)c1ccccc1 |  | 54% | 100% | < 6.00 |  |  | 27% | < 6.00 | < 6.00 | 38% | 103% | 10% |  |  |  |
| Cc1cc(=O)n([C@@H]2O[C@H](COP(=O)(O)O)[C@@H](O)[C@H]2O)c(=O)[nH]1 |  | 6% | 2% | < 4.00 |  |  |  | < 4.00 | < 4.00 |  | 17% |  |  |  |  |
| Cn1c(=O)ccn([C@@H]2O[C@H](COP(=O)(O)O)[C@@H](O)[C@H]2O)c1=O |  | 3% | 51% | < 4.00 |  |  | 0% | ≤ 4.00 | < 4.00 | 3% | 30% |  |  |  |  |
| O=C(Cn1c(=O)ccn([C@@H]2O[C@H](COP(=O)(O)OP(=O)(O)OP(=O)(O)O)[C@@H](O)[C@H]2OP(=O)(O)O)c1=O)c1ccccc1 |  | 0% | 75% | < 4.00 |  |  | 0% | < 6.00 | ≥ 6.00 | 54% | 107% |  |  |  |  |
| CCCc1cc(=O)n([C@@H]2O[C@H](COP(=O)(O)OP(=O)(O)OP(=O)(O)O)[C@H]3OP(=O)(O)O[C@H]32)c(=O)[nH]1 |  | 1% | 8% | < 4.00 |  |  |  | < 4.00 | < 6.00 | 24% | 69% |  |  |  |  |
| O=c1cc(O)n([C@@H]2O[C@H](COP(=O)(O)OP(=O)(O)OP(=O)(O)O)[C@@H](O)[C@H]2O)c(=O)[nH]1 | inactive | 12% | 43% | < 4.00 | inactive | inactive | 0% | < 4.00 | < 6.00 | 6% | 80% | 11% |  |  |  |
| CCCc1cc(=O)n([C@@H]2O[C@H](COP(=O)(O)OP(=O)(O)O)[C@@H](O)[C@H]2O)c(=O)[nH]1 | inactive | 0% | 23% | < 4.00 |  |  |  | < 6.00 | < 4.00 |  | 28% |  |  |  |  |
| Cc1cc(=O)n([C@@H]2O[C@H](COP(=O)(O)OP(=O)(O)OP(=O)(O)O)[C@@H](O)[C@H]2O)c(=O)[nH]1 | inactive | 29% | 72% | < 4.00 | inactive | inactive | 0% | < 6.00 | < 6.00 | 18% | 93% | 8% |  |  |  |
| Cn1c(=O)ccn([C@@H]2O[C@H](COP(=O)(O)OP(=O)(O)O)[C@@H](O)[C@H]2O)c1=O |  | 0% | 121% | < 4.00 |  |  | 8% | < 6.00 | < 6.00 | 10% | 99% |  |  |  |  |
| O=c1ccn([C@@H]2O[C@H](COP(=O)(O)O)[C@@H](O)[C@H]2O)c(=S)[nH]1 |  | 2% | 18% | < 4.00 |  |  |  | < 4.00 | ≤ 4.00 | 6% | 51% |  |  |  |  |
| Cn1c(=O)ccn([C@@H]2O[C@H](COP(=O)(O)OP(=O)(O)OP(=O)(O)O)[C@@H](O)[C@H]2O)c1=O |  |  | 109% | 5.53 |  |  | 2% | < 6.00 | 6.25 |  |  |  |  |  |  |
| O=c1cc(O)n([C@@H]2O[C@H](COP(=O)(O)O)[C@@H](O)[C@H]2O)c(=O)[nH]1 |  | 11% | 0% | < 4.00 |  |  |  | < 4.00 | < 4.00 |  | 11% |  |  |  |  |
| O=C(Cn1c(=O)ccn([C@@H]2O[C@H](COP(=O)(O)OP(=O)(O)O)[C@@H](O)[C@H]2O)c1=O)c1ccccc1 |  | 11% |  | < 4.00 |  |  |  | 7.15 | < 6.00 | 22% | 85% |  |  |  |  |
| O=c1ccn([C@@H]2O[C@H](COP(=O)(O)OP(=O)(O)OP(=O)(O)O)[C@@H](O)[C@H]2O)c(=S)[nH]1 |  |  | 118% | 5.75 |  |  | 44% | < 6.00 | 7.30 |  |  |  |  |  |  |
| CCCc1cc(=O)n([C@@H]2O[C@H](COP(=O)(O)O)[C@@H](O)[C@H]2O)c(=O)[nH]1 |  | 5% | 26% | < 4.00 |  |  |  | < 4.00 | < 4.00 |  | 9% |  |  |  |  |
| O=C(Cn1c(=O)ccn([C@@H]2O[C@H](COP(=O)(O)O)[C@@H](O)[C@H]2O)c1=O)c1ccccc1 | inactive | 2% | 16% | < 4.00 | inactive | inactive |  | < 4.00 | < 4.00 |  | 9% |  |  |  |  |

Second part, the molecule after the results:

| Activity (P2Y purinoceptor 6 [1]) | Activity (P2Y purinoceptor 4 [2]) | Activity (P2Y purinoceptor 6 [3]) | pEC50 (P2Y purinoceptor 4 [4]) | Activity (P2Y purinoceptor 2 [5]) | Activity (P2Y purinoceptor 4 [6]) | Activity (P2Y purinoceptor 6 [7]) | pEC50 (P2Y purinoceptor 6 [8]) | pEC50 (P2Y purinoceptor 2 [9]) | Activity (P2Y purinoceptor 2 [10]) | Activity (P2Y purinoceptor 2 [11]) | Activity (P2Y purinoceptor 4 [12]) | Ratio (Homo sapiens [13]) | pEC50 (P2Y purinoceptor 6 [14]) | Ratio (Homo sapiens [15]) | Compound |
| --- | --- | --- | --- | --- | --- | --- | --- | --- | --- | --- | --- | --- | --- | --- | --- |
|  | 73% |  | < 6.00 |  |  |  | 6.62 | < 6.00 | 42% | 91% | 18% |  |  |  | O=c1ccn([C@@H]2O[C@H](COP(=O)(O)OP(=O)(O)O)[C@@H](O)[C@H]2O)c(=S)[nH]1 |
|  |  |  | 5.40 |  |  |  | 6.92 | 6.45 |  |  |  |  |  |  | O=c1[nH]c(=O)n([C@@H]2O[C@H](COP(=O)(O)OP(=O)(O)C(Cl)(Cl)P(=O)(O)O)[C@@H](O)[C@H]2O)cc1Br |
|  | 21% | 124% | < 4.00 |  |  | 43% | < 6.00 | < 6.00 | 2% | 70% |  |  |  |  | O=c1[nH]c(=O)n([C@@H]2O[C@H](COP(=O)(O)O)[C@@H](O)[C@H]2O)cc1Br |
|  | 7% | 108% | < 4.00 |  |  | 0% | < 6.00 | < 6.00 | 25% | 69% |  |  |  |  | Cc1cc(=O)n([C@@H]2O[C@H](COP(=O)(O)OP(=O)(O)O)[C@@H](O)[C@H]2O)c(=O)[nH]1 |
|  |  |  | 5.14 |  |  |  | 6.82 | 5.44 |  |  |  | 24 | 6.89 | 48 | O=c1[nH]c(=O)n([C@@H]2O[C@H](COP(=O)(O)OP(=O)(O)O)[C@@H](O)[C@H]2O)cc1Br |
|  |  |  |  |  |  |  | 7.38 |  |  |  |  |  |  |  | O=c1ccn([C@@H]2O[C@H](COP(=O)(O)OP(=O)(O)O)[C@@H](O)[C@H]2O)c(=O)[nH]1 [URIDINE_DIPHOSPHATE] |
|  |  |  | 5.46 |  |  |  | 6.54 | 6.46 |  |  |  |  |  |  | O=c1[nH]c(=O)n([C@@H]2O[C@H](COP(=O)(O)OP(=O)(O)OP(=O)(O)O)[C@@H](O)[C@H]2O)cc1Br |
|  |  |  | 7.06 |  |  |  |  | 7.37 |  |  |  |  |  |  | O=c1ccn([C@@H]2O[C@H](COP(=O)(O)OP(=O)(O)OP(=O)(O)O)[C@@H](O)[C@H]2O)c(=O)[nH]1 [URIDINE TRIPHOSPHATE] |
